The numbers were not newly measured in publication PMC6399674 (The Journal of Organic Chemistry, 2019), which cites them from elsewhere.

The target in this series is T1, lectin LecA (Pseudomonas aeruginosa, UniProt Q05097).
T1 sequence (Q05097 1-122): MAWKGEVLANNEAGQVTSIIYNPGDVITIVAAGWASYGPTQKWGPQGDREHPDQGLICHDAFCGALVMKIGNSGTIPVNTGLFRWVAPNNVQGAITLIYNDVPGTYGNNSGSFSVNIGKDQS
The note with it: ITC.

Like-named read-outs stand apart in the source and are kept apart here.

For the molecule `O=C[C@H](O)[C@@H](O)[C@@H](O)[C@H](O)CO` [D-dalactose, galactose], the “n (stoichiometry)” value is 1.1, the ΔG entry was “–5.5 kcal/mol”, the ΔH result is “–7.9 kcal/mol” and the “–TΔS” value was 2.3 kcal/mol. Also, the Kd (as stated in text) is 70 to 90 µM.
For `OC[C@H]1O[C@@H](Oc2ccccc2)[C@H](O)[C@@H](O)[C@H]1O` [Gal-β-OPh], the equilibrium dissociation constant (Kd) is 8.8 µM, the “n (stoichiometry)” value is listed as 0.9, the ΔG result is reported as “–6.9 kcal/mol” and the ΔH entry is recorded as “–11.2 kcal/mol”. The “–TΔS” value is 4.8 kcal/mol. Also, the dissociation constant (Kd) (as stated in text) was approximately 9 µM.
